One assay concerns the target T1, Rad4-BRCT3,4 (Schizosaccharomyces pombe, UniProt P32372).
T1 construct: made in house; host or cells: E. coli BL21(DE3)
T1 sequence (P32372 291-494 limits assumed): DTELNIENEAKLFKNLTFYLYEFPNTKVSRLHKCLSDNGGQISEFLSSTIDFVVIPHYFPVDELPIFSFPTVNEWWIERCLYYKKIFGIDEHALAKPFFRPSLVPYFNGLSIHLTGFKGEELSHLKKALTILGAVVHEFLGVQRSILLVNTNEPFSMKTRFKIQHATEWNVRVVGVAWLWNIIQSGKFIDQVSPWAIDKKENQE
In words: Fluorescence polarisation titration, Rad4-BRCT3,4. Particulars: FP, fluorescein-peptide 200 nM, HEPES pH 7.5, room temperature; ND = low-affinity non-specific response, no binding curve. Here is the method: (§1) Fluorescein-labelled peptides (Peptide Protein Research Ltd, Fareham, UK) at a concentration of 200 nM, were incubated at room temperature with increasing concentrations of recombinant protein in 25 mM HEPES pH 7.5, 150 mM NaCl, 1 mM EDTA, 0.25 mM TCEP, 0.02% (v/v) Tween-20. Four parallel replicates of each titration were dispensed into a black 96-well polypropylene plate (VWR, Lutterworth, UK) for measurement. Fluorescence polarisation was measured in a CLARIOstar multimode microplate reader (BMG Labtech, Aylesbury, UK). Binding curves represent the mean of 4 independent experiments, with error bars indicating one standard deviation. All data were fitted by non-linear regression, to a one site-specific binding model in Prism seven for Mac OS X (v 7.0d, GraphPad Software) in order to calculate the reported dissociation constants (Kd). Low-affinity non-specific responses for which a binding curve could not be determined are marked as ND.
In general terms: In fluorescence polarisation assays a small probe gives low polarisation when free and higher when bound to something large.

A further assay has as its target T2, Rad4-BRCT1,2 WT (Schizosaccharomyces pombe, UniProt P32372).
T2 construct: made in house; host or cells: E. coli BL21(DE3)
T2 sequence (P32372 1-186 limits assumed): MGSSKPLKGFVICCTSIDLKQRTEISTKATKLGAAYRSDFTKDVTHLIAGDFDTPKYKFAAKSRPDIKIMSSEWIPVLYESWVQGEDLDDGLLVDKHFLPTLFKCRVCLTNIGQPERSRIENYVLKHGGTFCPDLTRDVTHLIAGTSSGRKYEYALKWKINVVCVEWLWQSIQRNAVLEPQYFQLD
The experiment in a line: Fluorescence polarisation titration, Rad4-BRCT1,2 wild-type. Particulars: FP, fluorescein-peptide 200 nM, HEPES pH 7.5, room temperature, one-site fit, 4 replicates; ND = low-affinity non-specific response, no binding curve. Here is the method:
as §1

The target in the next assay is T3, Rad4-BRCT1,2 K56E (Schizosaccharomyces pombe, UniProt P32372, K56E).
T3 construct: made in house; host or cells: E. coli BL21(DE3)
T3 sequence (P32372 1-186 K56E limits assumed): T2 sequence (P32372 1-186 limits assumed) with K56E
In words: Fluorescence polarisation titration, Rad4-BRCT1,2 K56E (BRCT1 mutant). Type of assay: binding. The note with it: FP, fluorescein-peptide 200 nM, HEPES pH 7.5, room temperature, one-site fit, 4 replicates. The procedure: as §1

For a further assay, the target named is T4, Rad4-BRCT1,2 K151E (Schizosaccharomyces pombe, UniProt P32372, K151E).
T4 construct: made in house; host or cells: E. coli BL21(DE3)
T4 sequence (P32372 1-186 K151E limits assumed): T2 sequence (P32372 1-186 limits assumed) with K151E
The experiment in a line: Fluorescence polarisation titration, Rad4-BRCT1,2 K151E (BRCT2 mutant). The note with it: FP, fluorescein-peptide 200 nM, HEPES pH 7.5, room temperature; ND = low-affinity non-specific response, no binding curve. Here is the method:
as §1

A further assay deals with T5, TOPBP1-BRCT0,1,2 WT (Homo sapiens, UniProt Q92547).
T5 construct: made in house; host or cells: E. coli BL21(DE3)
The experiment in a line: Fluorescence polarisation titration, TOPBP1-BRCT0,1,2 wild-type. The class given is binding. The procedure: as §1

Another assay addresses T6, TOPBP1-BRCT7,8 (Homo sapiens, UniProt Q92547).
T6 construct: made in house; host or cells: E. coli BL21(DE3)
In words: Fluorescence polarisation titration, TOPBP1-BRCT7,8. The class given is binding. The note with it: FP, fluorescein-peptide 200 nM, HEPES pH 7.5, room temperature, one-site fit; ND = low-affinity non-specific response, no binding curve. The procedure: as §1

Another assay addresses T7, TOPBP1-BRCT4,5 (Homo sapiens, UniProt Q92547).
T7 construct: made in house; host or cells: E. coli BL21(DE3)
The experiment in a line: Fluorescence polarisation titration, TOPBP1-BRCT4,5. Type of assay: binding. Particulars: FP, fluorescein-peptide 200 nM, HEPES pH 7.5, room temperature, one-site fit, 4 replicates; ND = low-affinity non-specific response, no binding curve. Here is the method: as §1

Another assay addresses T8, TOPBP1-BRCT0,1,2 K155E (Homo sapiens, UniProt Q92547, K155E).
T8 construct: made in house; host or cells: E. coli BL21(DE3)
In words: Fluorescence polarisation titration, TOPBP1-BRCT0,1,2 K155E (BRCT1 mutant). Type of assay: binding. The procedure: as §1

The target of another assay is T9, TOPBP1-BRCT0,1,2 K250E (Homo sapiens, UniProt Q92547, K250E).
T9 construct: made in house; host or cells: E. coli BL21(DE3)
In words: Fluorescence polarisation titration, TOPBP1-BRCT0,1,2 K250E (BRCT2 mutant). Type of assay: binding. Here is the method:
as §1

The mark [1] stands for this setting: FP, fluorescein-peptide 200 nM, HEPES pH 7.5, room temperature, one-site fit, 4 replicates.
[2] abbreviates: FP, fluorescein-peptide 200 nM, HEPES pH 7.5, room temperature, one-site fit, 4 replicates, read-out: Kd.

Where a chain is given by its changes, count along the chain named. Where two headings read alike, the source gives them in different places. Where a SMILES comes first, the peptide text is derived from it. [ ]: non-standard residue; d: D form. The star is where a group is joined. 5FAM = O=C1OC2(c3ccc(O)cc3Oc3cc(O)ccc32)c2ccc(C(=O)*)cc21; pT = C[C@@H](OP(=O)(O)O)[C@H](N)C(=O)O; pS = N[C@@H](COP(=O)(O)O)C(=O)O Bounds are passed on as bounds.

T9 sequence (Q92547 1-290 K250E limits assumed): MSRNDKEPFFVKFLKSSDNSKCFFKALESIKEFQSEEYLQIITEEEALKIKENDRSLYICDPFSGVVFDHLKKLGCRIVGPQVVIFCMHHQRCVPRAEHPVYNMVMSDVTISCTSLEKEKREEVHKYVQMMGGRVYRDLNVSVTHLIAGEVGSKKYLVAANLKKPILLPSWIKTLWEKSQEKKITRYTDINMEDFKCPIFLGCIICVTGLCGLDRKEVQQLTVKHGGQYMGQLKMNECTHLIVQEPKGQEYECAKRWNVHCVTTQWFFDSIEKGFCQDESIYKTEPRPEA
T8 sequence (Q92547 1-290 K155E limits assumed): as the sequence (Q92547 1-290 K250E limits assumed) above, with K155E, E250K counted along it
T5 sequence (Q92547 1-290 limits assumed): as the sequence (Q92547 1-290 K250E limits assumed) above, with E250K counted along it
T6 sequence (Q92547 1264-1493 limits assumed): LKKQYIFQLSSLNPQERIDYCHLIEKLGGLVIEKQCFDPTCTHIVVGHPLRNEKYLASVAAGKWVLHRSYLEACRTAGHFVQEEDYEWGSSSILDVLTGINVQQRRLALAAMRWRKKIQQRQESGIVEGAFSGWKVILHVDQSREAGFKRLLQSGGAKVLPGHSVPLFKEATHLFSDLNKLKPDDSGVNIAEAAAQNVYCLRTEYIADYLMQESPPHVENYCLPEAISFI
T7 sequence (Q92547 549-746 limits assumed): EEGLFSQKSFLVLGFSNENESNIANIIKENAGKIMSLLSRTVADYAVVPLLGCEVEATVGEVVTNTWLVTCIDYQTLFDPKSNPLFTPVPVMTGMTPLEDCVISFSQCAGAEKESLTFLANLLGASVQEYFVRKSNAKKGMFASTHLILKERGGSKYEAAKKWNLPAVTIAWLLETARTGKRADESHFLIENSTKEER

Consider `CSCC[C@H](NC(=O)[C@@H](NC(=O)CNC(=O)CNC(=O)[C@H](Cc1ccc(O)cc1)NC(=O)CNC(=O)c1ccc2c(c1)C(=O)OC21c2ccc(O)cc2Oc2cc(O)ccc21)C(C)C)C(=O)N[C@H](C(=O)N[C@H](C(=O)N1CCC[C@H]1C(=O)N[C@@H](CC(N)=O)C(=O)N[C@H](C(=O)N1CCC[C@H]1C(=O)N[C@@H](CCC(N)=O)C(=O)N[C@@H](CCCCN)C(=O)N1CCC[C@H]1C(=O)N[C@@H](CC(N)=O)C(=O)N[C@@H](CC(C)C)C(=O)N[C@@H](CCC(N)=O)C(=O)O)[C@@H](C)OP(=O)(O)O)C(C)C)[C@@H](C)O` [Mdb1 pT113] (5FAM-GYGGVMTVPN[pT]PQKPNLQ-OH), for which the Kd (commonly the free concentration of one partner at which half of the binding sites on the other are occupied at equilibrium, for simple one-to-one binding) is on record as “no binding” on Rad4-BRCT3,4, “low micromolar affinity” on Rad4-BRCT1,2 WT, “largely unaffected” at Rad4-BRCT1,2 K56E and “substantially reduced compared to wild-type” at Rad4-BRCT1,2 K151E.

In the case of `CC[C@H](C)[C@H](NC(=O)CNC(=O)[C@H](Cc1ccc(O)cc1)NC(=O)[C@H](CCCCN)NC(=O)[C@H](CC(=O)O)NC(=O)[C@H](CCC(=O)O)NC(=O)[C@@H]1CCCN1C(=O)[C@@H](NC(=O)[C@H](CC(=O)O)NC(=O)[C@H](CCCCN)NC(=O)[C@@H](NC(=O)[C@H](CC(C)C)NC(=O)[C@@H](NC(=O)[C@@H]1CCCN1C(=O)CNC(=O)CNC(=O)[C@H](Cc1ccc(O)cc1)NC(=O)CN)C(C)C)C(C)C)[C@@H](C)OP(=O)(O)O)C(=O)O` [RHNO1 pT202] (H-GYGGPVLVKD[pT]PEDKYGI-OH; N-terminus and C-terminus assumed), the Kd entry at TOPBP1-BRCT0,1,2 WT (setting [1]) was “sub-micromolar affinity”; on TOPBP1-BRCT0,1,2 WT (setting [2]), less than 200 nM; on TOPBP1-BRCT7,8, “did not show any measurable binding”; on TOPBP1-BRCT4,5, “did not show any measurable binding”; on TOPBP1-BRCT0,1,2 K155E (FP, fluorescein-peptide 200 nM, HEPES pH 7.5, room temperature, one-site fit, 4 replicates, ND = low-affinity non-specific response, no binding curve), “no binding was observed”; at TOPBP1-BRCT0,1,2 K250E (setting [1]), “comparable affinity to the wild-type”. Further, the Kd on TOPBP1-BRCT0,1,2 K250E (setting [2]) was less than 200 nM. Moreover, the “Fold tighter binding than RAD9-pS387” value on TOPBP1-BRCT0,1,2 WT (RHNO1-pT202 versus RAD9-pS387, binding to TOPBP1 BRCT1) is recorded as ~ 10 fold.

For the compound `CC[C@H](C)[C@H](NC(=O)[C@H](CCC(N)=O)NC(=O)[C@H](CCCCN)NC(=O)[C@H](Cc1c[nH]cn1)NC(=O)[C@@H](NC(=O)[C@@H]1CCCN1C(=O)[C@@H](NC(=O)[C@H](CCC(=O)O)NC(=O)[C@H](C)NC(=O)[C@@H](NC(=O)[C@H](CO)NC(=O)[C@H](CCCCN)NC(=O)[C@@H](NC(=O)[C@H](CC(C)C)NC(=O)CNC(=O)[C@H](Cc1ccc(O)cc1)NC(=O)CNC(=O)c1ccc2c(c1)C(=O)OC21c2ccc(O)cc2Oc2cc(O)ccc21)[C@@H](C)O)C(C)C)[C@@H](C)OP(=O)(O)O)C(C)C)C(=O)N[C@@H](CO)C(=O)O` [Treslin pT969] (5FAM-GYGLTKSVAE[pT]PVHKQIS-OH), the Kd on TOPBP1-BRCT0,1,2 WT (read-out: Kd) was 940 ± 60 nM; on TOPBP1-BRCT0,1,2 K155E (read-out: Kd) it was 1000 ± 60 nM.

On to `CC[C@H](C)[C@H](NC(=O)[C@H](CCC(=O)O)NC(=O)[C@H](CC(=O)O)NC(=O)CNC(=O)[C@H](CCCCN)NC(=O)[C@H](CCC(=O)O)NC(=O)[C@@H]1CCCN1C(=O)[C@H](COP(=O)(O)O)NC(=O)[C@H](CCC(=O)O)NC(=O)[C@H](CCC(=O)O)NC(=O)[C@@H](NC(=O)[C@@H](NC(=O)CNC(=O)[C@@H](NC(=O)[C@H](CC(=O)O)NC(=O)CNC(=O)[C@H](Cc1ccc(O)cc1)NC(=O)CNC(=O)c1ccc2c(c1)C(=O)OC21c2ccc(O)cc2Oc2cc(O)ccc21)[C@@H](C)CC)C(C)C)C(C)C)C(=O)O` [Treslin pT1001] (5FAM-GYGDIGVVEE[pS]PEKGDEI-OH), for which the Kd is 600 ± 30 nM at TOPBP1-BRCT0,1,2 WT (read-out: Kd), 730 ± 40 nM at TOPBP1-BRCT0,1,2 K155E (read-out: Kd) and 350 ± 130 nM on TOPBP1-BRCT0,1,2 K250E (read-out: Kd).
